Test results: patent US20100233676A1, “HIGH AFFINITY FLUOROCHROME BINDING PEPTIDES” (priority 2007, published 2010)

Columns and labels:
[1] = tested on: IQSPHFF peptide (SEQ ID NO:1), displayed on phage; assay: Binding of IQSPHFF phage to BSA-conjugated fluorochromes; details: FIG. 3A
Protocol: FIG. 3 presents exemplary data showing molecular modeling of IQSPHFF binding to VT-680. FIG. 3A. Binding affinities of IQSPHFF phage to BSA-conjugated fluorochromes via ELISA. FIG. 3B. Schematic π-π bonding between the phenylalanines of the peptide and the indole or benzoindole subunit of VT680 FIG. 3C. […] FIG. 3D. Illustrating a possible interaction of the peptide hydrophobic isoleucine and the hydrophobic alkene of the fluorochrome.
The affinity of IQSPHFF was determined using […] for different commercially available benzindol fluorochromes (Cy 3.5, Cy 5.5, VT680 and AF750). […] FIG. 3A.
The N-hydroxysuccinimide (NHS) ester of the benzindol fluorochromes VT680, GH680, Cy3.5, Cy5.5 or AF750 (1 mg) were conjugated to bovine serum albumin (BSA 100 mg/mL; 0.3 M NaCO3 buffer, pH 8.6) under reaction conditions of approximately tenfold molar excess VT680 to BSA. BSA-fluorochrome conjugate or BSA was adsorbed (5.0 μg/0.1 ml well, w/vol) overnight to wells of a Nunc Maxisorp plage (Nunc, Rochester, N.Y.). Supernatants were discarded and washed twice with PBS and blocked (5% BSA, 0.3 M NaCO3, pH 8.6, room temperature, 45 min). […]
Readout was depicted as the mean difference between absorbances in the BSA-fluorochrome containing wells and the BSA-only (negative control) wells. […]

[2] = tested on: HT1080 cells; assay: In vitro cell labeling of HT1080 cells, fluorescence plate reader; type: cell-based; details: free (unconjugated) peptide
Protocol: HT1080 […] cells (20,000 cells/well) were washed 3× with PBS to remove media then incubated with 0.1 mL of […] of Ac-IQSPHFF-NHS peptide or vehicle (PBS with 1% DMSO) for 1 hour at 37° C. Subsequent to incubation, cells were washed then incubated for 1 hour at 37° C. in the dark with 1 nmole of GH680 or 1 nmole of GH680+5 nmoles of underivatized peptide (competition experiment). Cells were then washed 6× with PBS+0.1% Tween 20 and analyzed via fluorescence plate reader GeminiXS (Molecular Devices). The IQSPHFF peptide sequence was covalently conjugated onto HT1080 cells and incubated with 5 nM of NIRF (VT680). Cells conjugated with IQSPHFF bound VT680>120-fold better than cells not conjugated with IQSPHFF. In addition, free (unconjugated) IQSPHFF peptide was able to compete for 98% of the binding of fluorochrome to peptide labeled cells, indicating the specificity of the interaction. FIG. 8A.

Row | Substance | affinity of IQSPHFF, relative between fluorochromes [1] | competition of fluorochrome binding to peptide labeled cells by free peptide [2]
1 | Cy5.5 | approximately four-fold less biding than VT680 | 
2 | IQSPHFF |  | 98%
